Assay results published in patent publication US7223767B2, “Tetrahydroquinazolines and dihydrocyclopentapyrimidines as CRF antagonists” (Roche Palo Alto LLC, priority 2003, dated 2007).
Where a name gives a salt, the structure may show the parent alone.

Target: T1, CRF1 receptor (Homo sapiens, UniProt P34998)
T1 construct: Cell membranes are prepared according the method of Dieterich and DeSouza (1996); endogenous in cells; host or cells: IMR-32 human neuroblastoma cells (membranes)
T1 sequence (P34998 24-415): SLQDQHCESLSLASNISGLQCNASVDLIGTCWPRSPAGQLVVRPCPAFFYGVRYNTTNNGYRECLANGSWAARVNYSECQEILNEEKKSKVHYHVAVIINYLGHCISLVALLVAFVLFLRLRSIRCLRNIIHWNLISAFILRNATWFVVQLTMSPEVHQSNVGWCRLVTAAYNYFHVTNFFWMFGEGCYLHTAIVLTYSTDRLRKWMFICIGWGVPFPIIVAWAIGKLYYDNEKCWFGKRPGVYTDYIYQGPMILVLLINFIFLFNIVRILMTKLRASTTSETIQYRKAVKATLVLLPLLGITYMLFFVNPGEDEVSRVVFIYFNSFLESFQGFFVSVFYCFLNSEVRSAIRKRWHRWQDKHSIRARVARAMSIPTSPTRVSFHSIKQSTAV
Test: CRF1 Receptor Binding Assay (competition binding, IMR-32 cell membranes)
Settings: CRF1 affinity; [125I]Tyr0-ovine CRF, human IMR-32 neuroblastoma cell membranes
Description: Human IMR-32 neuroblastoma cells are grown to 80% confluence in MEM medium containing 10% heat-inactivated FBS, 1 mM Sodium Pyruvate, and 0.1 mM nonessential amino acids. Cell membranes are prepared according the method of Dieterich and DeSouza (1996). The cells (˜5E+9) are resuspended in 10 volumes of wash buffer (5 mM Tris HCl, 10 mM MgCl2, 2 mM EGTA, pH 7.4 at RT), homogenized with a Polytron, and then centrifuged at 45,000 G for 20 min at 4° C. The membrane pellets are washed twice with wash buffer (45,000 G for 20 min at 4° C.) and then resuspended (50 mM Tris HCl, 10 mM MgCl2, 2 mM EGTA, pH 7.4 at RT). Protein concentration is determined using Pierce reagents and BSA as standard. Aliquots of 1-1.5 mL are stored at −80° C. until binding assay.
The competition binding assay is performed in a final volume of 250 μl which contains assay buffer (50 mM Tris-HCl, 10 MM MgCl2, 2 mM EGTA, 0.2% BSA, 0.1 mM bacitracin and 100 kIU/mL aprotinin pH 7.2 at R.T.), 0.05 nM [^125I]Tyr^0-ovine CRF (Du Pont New England Nuclear), 50 μg of membrane protein, and test compound at various concentrations. Non-specific binding is determined with 1 μM hCRF. Binding reactions are terminated after 2 hr incubation at 25° C. by filtering through 96-w GF/C filter plate using a Packard Harvester (Filtermate 196). The 96-w filter plate is pre-treated with 0.3% polyethyleneimine and pre-washed with washing buffer (50 mM Tris-HCl, 10 mM MgCl2, 2 mM EGTA, 0.2% BSA, pH 7.2 at 4° C.). Unbound radioactivity is removed by four rapid washes (0.8 ml/well) with wash buffer. The radioactivity is quantified using a Packard TopCount. Data are analyzed using non-linear iterative curve fitting to obtain IC50 and Hill slope values. PKi values are derived from pIC50 values (−log of IC50).

| SMILES | IC50 |
| --- | --- |
| COCCN(CCOC)c1nc(C)nc2c1CCCC2(C)c1ccc(Cl)cc1 (stereo not drawn) [Compound 6, [8-(4-Chloro-phenyl)-2,8-dimethyl-5,6,7,8-tetra-hydro-quinazolin-4-yl]-bis-(2-methoxy-ethyl)-a-mine] | 11700 nM |
| CCCN(CC1CC1)c1nc(C)nc2c1CCC2(C)c1ccc(C)cc1C (stereo not drawn) [Compound 10, Cyclopropylmethyl-[7-(2,4-dimethyl-phenyl)-2,7-di-methyl-6,7-dihydro-5H-cyclopentapyrimidin-4-yl]-pro-pyl-amine] | 661 nM |
| COCCN(CCOC)c1nc(C)nc2c1CCCC2c1ccc(Cl)cc1 (stereo not drawn) [Compound 5, [8-(4-Chloro-phenyl)-2-methyl-5,6,7,8-tetrahydro-quina-zolin-4-yl]-bis-(2-methoxy-ethyl)-amine] | 28800 nM |

Further lines, results first:

| IC50 | SMILES |
| --- | --- |
| 1120 nM | CCCN(CC1CC1)c1nc(C)nc2c1CCC2c1ccc(C)cc1C (stereo not drawn) [Compound 9, Cyclopropylmethyl-[7-(2,4-dimethyl-phenyl)-2-meth-yl-6,7-dihydro-5H-cyclopentapyrimidin-4-yl]-pro-pyl-amine] |
| 1740 nM | CCCN(CC1CC1)c1nc(C)nc2c1CCCC2(C)c1ccc(Cl)cc1 (stereo not drawn) [Compound 4, [8-(4-chloro-phenyl)-2,8-dimethyl-5,6,7,8-tetra-hydro-quinazolin-4-yl]-cyclopropylmethyl-pro-pyl-amine] |
| 525 nM | CCCN(CC1CC1)c1nc(C)nc2c1CCC[C@@]2(C)c1ccccc1 [Compound 2, Cyclopropylmethyl-((S)-2,8-dimethyl-8-phenyl-5,6,7,8-tetra-hydro-quinazolin-4-yl)-propyl-amine] |
| 2340 nM | CCCN(CC1CC1)c1nc(C)nc2c1CCCC2c1ccc(Cl)cc1 (stereo not drawn) [Compound 3, [8-(4-Chloro-phenyl)-2-methyl-5,6,7,8-tetrahydro-quina-zolin-4-yl]-cyclopropylmethyl-propyl-amine] |
| 2820 nM | CCCN(CC1CC1)c1nc(C)nc2c1CCCC2c1ccccc1 (stereo not drawn) [Compound 1, Cyclopropylmethyl-(2-methyl-8-phenyl-5,6,7,8-tetra-hydro-quinazolin-4-yl)-propyl-amine] |

System: not given
Test: not given
Settings: not given

| melting point | SMILES |
| --- | --- |
| 238.3 to 243.9 °C | CCCC1(CCC)CCCc2c(Nc3ccc(Cl)cc3Cl)nc(C)nc21 (as salt: hydrochloride) [Compound 11, (2,4-Dichloro-phenyl)-(2-methyl-8,8-dipropyl-5,6,7,8-tetra-hydro-quinazolin-4-yl)-amine] |
